According to patent US20240132431A1, “METHOD FOR ALKYLATING ACIDIC FUNCTIONAL GROUP” (Chugai Seiyaku Kabushiki Kaisha, priority 2021, published 2024):

Target: T1, Bcl-2 protein (Recombinant Human Bcl-2 Protein) (Homo sapiens, UniProt P10415)
T1 construct: purchased Novus NBP2-34889
Assay: Binding evaluation of mixture library compounds to Bcl-2 using AS-MS (affinity selection mass spectrometry)
Details: for ASMS ratio (%) n = 1 / ASMS ratio (%) n = 2: AS-MS, mixture library, Bcl-2, ASMS Ratio(%)=(A−C)/B×100; for ASMS ratio (%) n = 1: replicate n = 1; for ASMS ratio (%) n = 2: replicate n = 2
In short: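 Readout is ASMS Ratio (%), (A−C)/B×100, from reversed-phase LC/MS of SEC-passed extracts, with protein-free unfiltered standard (B) and protein-free SEC blank (C). Recombinant human Bcl-2 at 20 μM final met ~1200 pooled compounds at […] each for 1 h, 23° C., dark, in Tris-HCl pH 7.4 buffer.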

T1 sequence (P10415 whole entry): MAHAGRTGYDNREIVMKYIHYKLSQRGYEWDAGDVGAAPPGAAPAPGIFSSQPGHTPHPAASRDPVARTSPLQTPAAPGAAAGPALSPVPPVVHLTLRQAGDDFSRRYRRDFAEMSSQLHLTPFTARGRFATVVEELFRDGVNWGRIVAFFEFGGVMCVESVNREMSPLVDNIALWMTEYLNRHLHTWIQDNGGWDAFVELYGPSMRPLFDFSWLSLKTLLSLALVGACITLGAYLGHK

| SMILES | ASMS ratio (%) (n = 1) | ASMS ratio (%) (n = 2) | ASMS ratio (%) n = 1 | ASMS ratio (%) n = 2 |
| --- | --- | --- | --- | --- |
| CCOc1cccc(-c2ccc(CN3CCN(c4ccc(C(=O)NS(=O)(=O)CCC(F)(F)F)nn4)CC3)c3ccccc23)c1 [B2N091-01, 6-[4-[[4-(3-Ethoxyphenyl)naphthalen-1-yl]methyl]piperazin-1-yl]-N-(3,3,3-trifluoropropylsulfonyl)pyridazine-3-carboxamide] | 0.0% | 0.0% | – | – |
| CCOc1cncc(-c2ccc(CN3CCN(c4ccc(C(=O)NS(=O)(=O)CCC(F)(F)F)nn4)CC3)c3ccccc23)c1 [B2N092-01] | 0.0% | 0.0% | – | – |
| CCOc1cccc(-c2csc(CN3CCN(c4ccc(C(=O)NS(=O)(=O)CCC(F)(F)F)nn4)CC3)c2)c1 [B2N093-01, 6-[4-[[4-(3-Ethoxyphenyl)thiophen-2-yl]methyl]piperazin-1-yl]-N-(3,3,3-trifluoropropylsulfonyl)pyridazine-3-carboxamide] | 0.0% | – | – | – |
| CCOc1cncc(-c2csc(CN3CCN(c4ccc(C(=O)NS(=O)(=O)CCC(F)(F)F)nn4)CC3)c2)c1 [B2N094-01, 6-[4-[[4-(5-Ethoxypyridin-3-yl)thiophen-2-yl]methyl]piperazin-1-yl]-N-(3,3,3-trifluoropropylsulfonyl)pyridazine-3-carboxamide] | 0.0% | 0.0% | – | – |
| CCOc1cccc(C#Cc2ccccc2CN2CCN(c3ccc(C(=O)NS(=O)(=O)CCC(F)(F)F)nn3)CC2)c1 [B2N095-01, 6-[4-[[2-[2-(3-Ethoxyphenyl)ethynyl]phenyl]methyl]piperazin-1-yl]-N-(3,3,3-trifluoropropylsulfonyl)pyridazine-3-carboxamide] | 0.0% | 0.0% | – | – |
| CCOc1cccc(-c2ccc(C(C)N3CCN(c4ccc(C(=O)NS(=O)(=O)CCC(F)(F)F)cc4)CC3)cc2)c1 (centres unmarked) [B2N097-01, 4-[4-[1-[4-(3-Ethoxyphenyl)phenyl]ethyl]piperazin-1-yl]-N-(3,3,3-trifluoropropylsulfonyl)benzamide] | 0.0% | 0.0% | – | – |
| CCOc1cncc(-c2ccc(C(C)N3CCN(c4ccc(C(=O)NS(=O)(=O)CCC(F)(F)F)cc4)CC3)cc2)c1 (centres unmarked) [B2N098-01, 4-[4-[1-[4-(5-Ethoxypyridin-3-yl)phenyl]ethyl]piperazin-1-yl]-N-(3,3,3-trifluoropropylsulfonyl)benzamide] | 0.0% | −0.7% | – | – |
| CCOc1cccc(-c2ccc(C(C)N3CCN(c4ccc(C(=O)NS(=O)(=O)CCC(F)(F)F)cc4)CC3)c(F)c2)c1 (centres unmarked) [B2N099-01, 4-[4-[1-[4-(3-Ethoxyphenyl)-2-fluorophenyl]ethyl]piperazin-1-yl]-N-(3,3,3-trifluoropropylsulfonyl)benzamide] | 0.0% | 0.0% | – | – |
| CCOc1cncc(-c2ccc(C(C)N3CCN(c4ccc(C(=O)NS(=O)(=O)CCC(F)(F)F)cc4)CC3)c(F)c2)c1 (centres unmarked) [B2N100-01, 4-[4-[1-[4-(5-Ethoxypyridin-3-yl)-2-fluorophenyl]ethyl]piperazin-1-yl]-N-(3,3,3-trifluoropropylsulfonyl)benzamide] | 0.0% | 0.0% | – | – |
| CCOc1cccc(-c2csc(C(=O)N3CCN(c4ccc(C(=O)NS(=O)(=O)c5ccc(NCCSc6ccccc6)c([N+](=O)[O-])c5)nn4)CC3)c2)c1 [B2Q001-01, 6-[4-[4-(3-Ethoxyphenyl)thiophene-2-carbonyl]piperazin-1-yl]-N-[3-nitro-4-(2-phenylsulfanylethylamino)phenyl]sulfonylpyridazine-3-carboxamide] | – | – | 0.0% | 0.0% |
| CCOc1cncc(-c2csc(C(=O)N3CCN(c4ccc(C(=O)NS(=O)(=O)c5ccc(NCCSc6ccccc6)c([N+](=O)[O-])c5)nn4)CC3)c2)c1 [B2Q002-01, 6-[4-[4-(5-Ethoxypyridin-3-yl)thiophene-2-carbonyl]piperazin-1-yl]-N-[3-nitro-4-(2-phenylsulfanylethylamino)phenyl]sulfonylpyridazine-3-carboxamide] | – | – | 24.5% | 17.2% |
| CCOc1cccc(-c2ccc(C(=O)N3CCN(c4ccc(C(=O)NS(=O)(=O)c5ccc(NCCSc6ccccc6)c([N+](=O)[O-])c5)nn4)CC3)cc2C)c1 [B2Q003-01, 6-[4-[4-(3-Ethoxyphenyl)-3-methylbenzoyl]piperazin-1-yl]-N-[3-nitro-4-(2-phenylsulfanylethylamino)phenyl]sulfonylpyridazine-3-carboxamide] | – | – | 8.2% | 6.9% |
| CCOc1cncc(-c2ccc(C(=O)N3CCN(c4ccc(C(=O)NS(=O)(=O)c5ccc(NCCSc6ccccc6)c([N+](=O)[O-])c5)nn4)CC3)cc2C)c1 [B2Q004-01, 6-[4-[4-(5-Ethoxypyridin-3-yl)-3-methylbenzoyl]piperazin-1-yl]-N-[3-nitro-4-(2-phenylsulfanylethylamino)phenyl]sulfonylpyridazine-3-carboxamide] | – | – | 10.7% | 8.7% |
| CCOc1cccc(-c2ccc(C(=O)N3CCN(c4ccc(C(=O)NS(=O)(=O)c5ccc(NCCSc6ccccc6)c([N+](=O)[O-])c5)nn4)CC3)cc2F)c1 [B2Q005-01, 6-[4-[4-(3-Ethoxyphenyl)-3-fluorobenzoyl]piperazin-1-yl]-N-[3-nitro-4-(2-phenylsulfanylethylamino)phenyl]sulfonylpyridazine-3-carboxamide] | – | – | 12.5% | 15.3% |
| CCOc1cncc(-c2ccc(C(=O)N3CCN(c4ccc(C(=O)NS(=O)(=O)c5ccc(NCCSc6ccccc6)c([N+](=O)[O-])c5)nn4)CC3)cc2F)c1 [B2Q006-01, 6-[4-[4-(5-Ethoxypyridin-3-yl)-3-fluorobenzoyl]piperazin-1-yl]-N-[3-nitro-4-(2-phenylsulfanylethylamino)phenyl]sulfonylpyridazine-3-carboxamide] | – | – | 9.5% | 2.2% |
| CCOc1cccc(C#Cc2ccccc2C(=O)N2CCN(c3ccc(C(=O)NS(=O)(=O)c4ccc(NCCSc5ccccc5)c([N+](=O)[O-])c4)nn3)CC2)c1 [B2Q007-01, 6-[4-[2-[2-(3-Ethoxyphenyl)ethynyl]benzoyl]piperazin-1-yl]-N-[3-nitro-4-(2-phenylsulfanylethylamino)phenyl]sulfonylpyridazine-3-carboxamide] | – | – | 4.2% | −8.3% |
| CCOc1cncc(C#Cc2ccccc2C(=O)N2CCN(c3ccc(C(=O)NS(=O)(=O)c4ccc(NCCSc5ccccc5)c([N+](=O)[O-])c4)nn3)CC2)c1 [B2Q008-01, 6-[4-[2-[2-(5-Ethoxypyridin-3-yl)ethynyl]benzoyl]piperazin-1-yl]-N-[3-nitro-4-(2-phenylsulfanylethylamino)phenyl]sulfonylpyridazine-3-carboxamide] | – | – | 16.5% | 0.5% |
| CCOc1cccc(C#Cc2cncc(C(=O)N3CCN(c4ccc(C(=O)NS(=O)(=O)c5ccc(NCCSc6ccccc6)c([N+](=O)[O-])c5)nn4)CC3)c2)c1 [B2Q009-01, 6-[4-[5-[2-(3-Ethoxyphenyl)ethynyl]pyridine-3-carbonyl]piperazin-1-yl]-N-[3-nitro-4-(2-phenylsulfanylethylamino)phenyl]sulfonylpyridazine-3-carboxamide] | – | – | 16.5% | 0.5% |
